Laboratory results from patent US12128064B1, “Polysilane methacrylic compounds and methods of making them” (Zetagen Therapeutics, Inc., priority 2024, dated 2024).

System: BT-474 breast cancer cells
Experiment: Toxicity of the Compound (IVa) polymer in BT-474 cultures
Assay type: cell-based
Settings: 24-hours
Procedure: The small molecule, N-allyl noroxymorphone hydrochloride, was added to Compound IVa (SiH3—[SiH2]n—SiH2—[C5H7O2]n with Ca10(PO4)6(OH)2) at a concentration of 0.4-mg N-allyl noroxymorphone/mg of Compound IVa. Then the MAGE-Polymerization Initiator Solution containing the vinyl monomer vinyl methacrylate was added in a ratio of 2:1. The material—with N-allyl noroxymorphone hydrochloride—was then polymerized and added to cultures of BT-474 breast cancer cells. Cultures were also treated with N-allyl noroxymorphone hydrochloride alone. Control cultures received no treatment.

## C=CCN1CC[C@]23c4c5ccc(O)c4O[C@H]2C(=O)CC[C@@]3(O)[C@H]1C5.Cl [N-allyl noroxymorphone hydrochloride]
  Decrease in cell number relative to Control Cultures: 59.7%
